From patent EP3046573B1, “AMYLIN ANALOGUES” (Zealand Pharma A/S, priority 2013, dated 2015)
Where two headings read alike, the source gives them in different places. Numbered stars: 1 amine (or outer) side, 2 acyl side, 3 side chain; on linkers, the order of the positions; unused ones are H or OH. Bridge positions count the residues as written; N and C are the ends. Square brackets hold non-standard residues; d marks the D form. Peptide text beside a SMILES is read from it. * marks the point of attachment. C20 diacid = O=C(O)CCCCCCCCCCCCCCCCCCC(=O)*; γGlu = O=C(O)[C@H](CCC(=O)[*:2])N[*:1]; NMeI = CC[C@H](C)[C@H](NC)C(=O)O; Sar = CNCC(=O)O

Assays:
[1] = Solubility assessment (turbidity absorbance at 325 nm); assay type: physicochemical; settings: stock 2 mg/ml diluted 1:1, ambient temperature (typically 25°C), n=1; for Solubility, Acetate buffer pH 4: 100 mM acetate buffer pH 4.0; for Solubility, Acetate buffer pH 5: 100 mM acetate buffer pH 5.0; for Solubility, Histidine buffer pH 6: 100 mM histidine buffer pH 6.0; for Solubility, Histidine buffer pH 7: 100 mM histidine buffer pH 7.0; for Solubility, Phosphate buffer pH 6: 100 mM phosphate buffer pH 6.0; for Solubility, Phosphate buffer pH 7: 100 mM phosphate buffer pH 7.0; for Solubility, Phosphate buffer pH 7.5: 100 mM phosphate buffer pH7.5
In short: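 Stock 2 mg/ml peptide, H2O/HCl pH 2.5; 1:1 into 100 mM buffers: acetate pH 4.0/5.0, His pH 6.0/7.0, phosphate pH 6.0/7.0/7.5. A280 + A325, ~25°C, n=1. Soluble ≥ 1 mg/ml if A325 ≤ 0.02.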

[2] = molecular target: T1, human calcitonin receptor (hCTR2) (Homo sapiens, UniProt P30988); test: hCTR2 assay: induction of cAMP (AlphaScreen cAMP Assay kit) in COS7 cells expressing hCTR2; assay type: cell-based
T1 construct: expressed in transfected cells
T1 sequence (P30988 25-474): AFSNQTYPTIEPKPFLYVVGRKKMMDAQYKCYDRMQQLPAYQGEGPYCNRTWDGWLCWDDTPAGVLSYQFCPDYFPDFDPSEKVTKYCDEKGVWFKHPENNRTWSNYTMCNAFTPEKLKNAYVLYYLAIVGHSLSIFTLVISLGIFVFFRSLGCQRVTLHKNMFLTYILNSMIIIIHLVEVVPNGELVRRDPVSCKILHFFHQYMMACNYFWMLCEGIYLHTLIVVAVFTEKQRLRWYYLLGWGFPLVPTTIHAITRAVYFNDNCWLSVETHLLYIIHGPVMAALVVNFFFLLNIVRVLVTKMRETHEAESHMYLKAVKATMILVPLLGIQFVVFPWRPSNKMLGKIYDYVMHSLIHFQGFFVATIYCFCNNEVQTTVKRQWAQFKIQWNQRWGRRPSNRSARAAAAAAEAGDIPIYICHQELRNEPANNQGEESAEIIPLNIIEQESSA
In short: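 Stable hCTR2 clone in RAMP-naive COS7 cells; peptides titrated in Tyrode buffer (pH 7.4) with 100 µM IBMX, 0.1% casein, 15 min at 37° C. cAMP read by AlphaScreen after lysis; EC50 and efficacy relative to pramlintide from 4PL fit.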

[3] = cAMP induction in COS7 cells expressing hCTR2, average of a minimum of 3 determinations, read-out: hCTR2 EC50

SMILES	Solubility, Acetate buffer pH 4 [1]	Solubility, Acetate buffer pH 5 [1]	Solubility, Histidine buffer pH 6 [1]	Solubility, Histidine buffer pH 7 [1]	Solubility, Phosphate buffer pH 6 [1]	Solubility, Phosphate buffer pH 7 [1]	Solubility, Phosphate buffer pH 7.5 [1]	EC50 [2, 3] [nM]	EC50 [2] [nM]
CC[C@H](C)[C@@H](C(=O)N[C@@H](CC(C)C)C(=O)N[C@@H](CO)C(=O)N[C@@H](CO)C(=O)N[C@H](C(=O)N[C@@H](CC(=O)O)C(=O)N[C@H](C(=O)NCC(=O)N[C@@H](CO)C(=O)N[C@@H](CCC(=O)O)C(=O)N[C@H](C(=O)N1CCC[C@H]1C(N)=O)[C@@H](C)O)C(C)C)[C@@H](C)O)N(C)C(=O)[C@H](C)NC(=O)CN(C)C(=O)[C@H](Cc1ccccc1)NC(=O)[C@H](CO)NC(=O)[C@H](CO)NC(=O)[C@H](CCCNC(=N)N)NC(=O)[C@H](Cc1c[nH]cn1)NC(=O)[C@H](CC(C)C)NC(=O)[C@H](Cc1ccccc1)NC(=O)[C@H](CCC(=O)O)NC(=O)[C@H](C)NC(=O)[C@H](CC(C)C)NC(=O)[C@H](CCCNC(=N)N)NC(=O)[C@H](CCC(N)=O)NC(=O)[C@@H](NC(=O)[C@H](C)NC(=O)[C@@H]1CSSC[C@H](NC(=O)[C@H](CCCNC(=N)N)NC(=O)CC[C@H](NC(=O)CCCCCCCCCCCCCCCCCCC(=O)O)C(=O)O)C(=O)N[C@@H](CC(N)=O)C(=O)N[C@@H]([C@@H](C)O)C(=O)N[C@@H](C)C(=O)N[C@@H]([C@@H](C)O)C(=O)N1)[C@@H](C)O [Compound 80, [19CD]-isoGlu-RC()NTATC()ATQRLAEFLHRSSF-Gly(Me)-A-Ile(Me)-LSSTDVGSETP-NH2] ({C20 diacid-γGlu}-RCNTATCATQRLAEFLHRSSF[Sar]A[NMeI]LSSTDVGSETP-NH2; disulfide 2-7)	SS (SS indicates solubility ≥ 1mg/ml)	SS (SS indicates solubility ≥ 1mg/ml)	II (II indicates solubility ≤ 1 mg/ml)	SS (SS indicates solubility ≥ 1mg/ml)	SS (SS indicates solubility ≥ 1mg/ml)	SS (SS indicates solubility ≥ 1mg/ml)	SS (SS indicates solubility ≥ 1mg/ml)	0.062	–
CC[C@H](C)[C@@H](C(=O)N[C@@H](CC(C)C)C(=O)N[C@@H](CO)C(=O)N[C@@H](CO)C(=O)N[C@H](C(=O)N[C@@H](CC(=O)O)C(=O)N[C@H](C(=O)NCC(=O)N[C@@H](CO)C(=O)N[C@@H](CC(=O)O)C(=O)N[C@H](C(=O)N1CCC[C@H]1C(N)=O)[C@@H](C)O)C(C)C)[C@@H](C)O)N(C)C(=O)[C@H](C)NC(=O)CN(C)C(=O)[C@H](Cc1ccccc1)NC(=O)[C@H](CO)NC(=O)[C@H](CO)NC(=O)[C@H](CCCNC(=N)N)NC(=O)[C@H](Cc1c[nH]cn1)NC(=O)[C@H](CC(C)C)NC(=O)[C@H](Cc1ccccc1)NC(=O)[C@H](CCC(=O)O)NC(=O)[C@H](C)NC(=O)[C@H](CC(C)C)NC(=O)[C@H](CCCNC(=N)N)NC(=O)[C@H](CCC(N)=O)NC(=O)[C@@H](NC(=O)[C@H](C)NC(=O)[C@@H]1CSSC[C@H](NC(=O)[C@H](CCCNC(=N)N)NC(=O)CC[C@H](NC(=O)CCCCCCCCCCCCCCCCCCC(=O)O)C(=O)O)C(=O)N[C@@H](CC(N)=O)C(=O)N[C@@H]([C@@H](C)O)C(=O)N[C@@H](C)C(=O)N[C@@H]([C@@H](C)O)C(=O)N1)[C@@H](C)O [Compound 81, [19CD]-isoGlu-RC()NTATC()ATQRLAEFLHRSSF-Gly(Me)-A-Ile(Me)-LSSTDVGSDTP-NH2] ({C20 diacid-γGlu}-RCNTATCATQRLAEFLHRSSF[Sar]A[NMeI]LSSTDVGSDTP-NH2; disulfide 2-7)	SS (SS indicates solubility ≥ 1mg/ml)	SS (SS indicates solubility ≥ 1mg/ml)	SS (SS indicates solubility ≥ 1mg/ml)	SS (SS indicates solubility ≥ 1mg/ml)	SS (SS indicates solubility ≥ 1mg/ml)	SS (SS indicates solubility ≥ 1mg/ml)	SS (SS indicates solubility ≥ 1mg/ml)	0.057	–
CC[C@H](C)[C@@H](C(=O)N[C@@H](CC(C)C)C(=O)N[C@@H](CO)C(=O)N[C@@H](CO)C(=O)N[C@H](C(=O)N[C@@H](CC(N)=O)C(=O)N[C@H](C(=O)NCC(=O)N[C@@H](CO)C(=O)N[C@@H](CC(N)=O)C(=O)N[C@H](C(=O)N1CCC[C@H]1C(N)=O)[C@@H](C)O)C(C)C)[C@@H](C)O)N(C)C(=O)[C@H](C)NC(=O)CN(C)C(=O)[C@H](Cc1ccccc1)NC(=O)[C@H](CC(N)=O)NC(=O)[C@H](CC(N)=O)NC(=O)[C@H](CO)NC(=O)[C@H](CO)NC(=O)[C@H](CCCNC(=N)N)NC(=O)[C@H](Cc1c[nH]cn1)NC(=O)[C@H](CC(C)C)NC(=O)[C@H](Cc1ccccc1)NC(=O)[C@H](CCC(=O)O)NC(=O)[C@H](C)NC(=O)[C@H](CC(C)C)NC(=O)[C@H](CCCNC(=N)N)NC(=O)[C@H](CCC(N)=O)NC(=O)[C@@H](NC(=O)[C@H](C)NC(=O)[C@@H]1CSSC[C@H](NC(=O)[C@H](CCCNC(=N)N)NC(=O)[C@H](Cc2c[nH]cn2)NC(=O)CC[C@H](NC(=O)CCCCCCCCCCCCCCCCCCC(=O)O)C(=O)O)C(=O)N[C@@H](CC(N)=O)C(=O)N[C@@H]([C@@H](C)O)C(=O)N[C@@H](C)C(=O)N[C@@H]([C@@H](C)O)C(=O)N1)[C@@H](C)O [Compound 85, [19CD]-isoGlu-HRC()NTATC()ATQRLAEFLHRSSNNF-Gly(Me)-A-Ile(Me)-LSSTNVGSNTP-NH2] ({C20 diacid-γGlu}-HRCNTATCATQRLAEFLHRSSNNF[Sar]A[NMeI]LSSTNVGSNTP-NH2; disulfide 3-8)	SS (SS indicates solubility ≥ 1mg/ml)	SS (SS indicates solubility ≥ 1mg/ml)	SS (SS indicates solubility ≥ 1mg/ml)	SS (SS indicates solubility ≥ 1mg/ml)	SS (SS indicates solubility ≥ 1mg/ml)	SS (SS indicates solubility ≥ 1mg/ml)	SS (SS indicates solubility ≥ 1mg/ml)	–	0.083
CC[C@H](C)[C@@H](C(=O)N[C@@H](CC(C)C)C(=O)N[C@@H](CO)C(=O)N[C@@H](CO)C(=O)N[C@H](C(=O)N[C@@H](CC(N)=O)C(=O)N[C@H](C(=O)NCC(=O)N[C@@H](CO)C(=O)N[C@@H](CC(N)=O)C(=O)N[C@H](C(=O)N1CCC[C@H]1C(N)=O)[C@@H](C)O)C(C)C)[C@@H](C)O)N(C)C(=O)[C@H](C)NC(=O)CN(C)C(=O)[C@H](Cc1ccccc1)NC(=O)[C@H](CC(N)=O)NC(=O)[C@H](CC(N)=O)NC(=O)[C@H](CO)NC(=O)[C@H](CO)NC(=O)[C@H](CCCNC(=N)N)NC(=O)[C@H](Cc1c[nH]cn1)NC(=O)[C@H](CC(C)C)NC(=O)[C@H](Cc1ccccc1)NC(=O)[C@H](CCC(=O)O)NC(=O)[C@H](C)NC(=O)[C@H](CC(C)C)NC(=O)[C@H](CCCNC(=N)N)NC(=O)[C@H](CCC(N)=O)NC(=O)[C@@H](NC(=O)[C@H](C)NC(=O)[C@@H]1CSSC[C@H](NC(=O)[C@H](CCCCN)NC(=O)[C@H](CCCNC(=N)N)NC(=O)CC[C@H](NC(=O)CCCCCCCCCCCCCCCCCCC(=O)O)C(=O)O)C(=O)N[C@@H](CC(N)=O)C(=O)N[C@@H]([C@@H](C)O)C(=O)N[C@@H](C)C(=O)N[C@@H]([C@@H](C)O)C(=O)N1)[C@@H](C)O [Compound 86, [19CD]-isoGlu-RKC()NTATC()ATQRLAEFLHRSSNNF-Gly(Me)-A-Ile(Me)-LSSTNVGSNTP-NH2] ({C20 diacid-γGlu}-RKCNTATCATQRLAEFLHRSSNNF[Sar]A[NMeI]LSSTNVGSNTP-NH2; disulfide 3-8)	SS (SS indicates solubility ≥ 1mg/ml)	SS (SS indicates solubility ≥ 1mg/ml)	SS (SS indicates solubility ≥ 1mg/ml)	SS (SS indicates solubility ≥ 1mg/ml)	SS (SS indicates solubility ≥ 1mg/ml)	SS (SS indicates solubility ≥ 1mg/ml)	SS (SS indicates solubility ≥ 1mg/ml)	–	0.065
